Data taken from patent US20180346473A1, “FUSED BICYCLIC COMPOUNDS” (Akarna Therapeutics, Ltd., priority 2017, published 2018).

molecular target: T1, FXR (Homo sapiens, UniProt Q96RI1); test: FXR Agonist Assay (Gaussia luciferase reporter in cells); format: cell-based; conditions: 20 hours incubation at 37° C., Gaussia luciferase luminescence, normalized to DMSO control
T1 sequence (Q96RI1 1-486): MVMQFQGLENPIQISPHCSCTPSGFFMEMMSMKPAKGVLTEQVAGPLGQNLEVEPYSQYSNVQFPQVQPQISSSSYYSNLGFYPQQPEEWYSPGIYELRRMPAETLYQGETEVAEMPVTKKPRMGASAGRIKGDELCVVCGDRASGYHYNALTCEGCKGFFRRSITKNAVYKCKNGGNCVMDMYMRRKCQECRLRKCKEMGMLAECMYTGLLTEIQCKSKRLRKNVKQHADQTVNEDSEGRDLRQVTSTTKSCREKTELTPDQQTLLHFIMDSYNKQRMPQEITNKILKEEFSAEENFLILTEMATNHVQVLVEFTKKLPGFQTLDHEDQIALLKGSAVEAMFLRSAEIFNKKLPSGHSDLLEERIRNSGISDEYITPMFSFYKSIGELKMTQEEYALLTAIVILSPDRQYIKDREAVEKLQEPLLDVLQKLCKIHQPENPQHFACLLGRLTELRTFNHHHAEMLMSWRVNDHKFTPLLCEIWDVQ
Description: Starting from 3.33 mM of compound in DMSO solution, a 10-point 3-fold serial dilution was made by diluting 5 μL of compound into 10 μL of DMSO. The serially diluted compound was then diluted 1:33 into DMEM. This medium was then diluted ten-fold into the culture medium with the cells (10 μL/well). All concentration points are assayed in duplicate. Plates were incubated at 37° C. for 20 hours. After the incubation, 20 μL of culture medium were removed from each well and mixed with 50 μL of assay solution (Pierce™ Gaussia Luciferase Flash Assay Kit). The luminescence was measured immediately after addition of the Luc substrate with an Envision microplate reader. The raw data was uploaded to CDD and dose-response curves were generated using the Levenberg-Marquardt algorithm integrated into CDD. A negative control DMSO is included on each plate and used to normalize the data with the CDD built-in normalization function.

**Q.** `CC(C)OC(=O)C1=CN(C(=O)c2ccc(OCCN3CCOCC3)cc2)CC(C)(C)c2c(C(F)(F)F)n[nH]c21` [Compound 2, (E)-isopropyl 4,4-dimethyl-6-(4-(2-morpholinoethoxy)benzoyl)-3-(trifluoromethyl)-1,4,5,6-tetrahydropyrazolo[3,4-d]azepine-8-carboxylate] was tested. Which EC50 did it give?
**A.** < 0.5 µM

**Q.** How did the EC50 turn out when `CC(C)OC(=O)C1=CN(C(=O)c2ccc(OCCN3CCOCC3)c(F)c2)CC(C)(C)c2c(C(F)(F)F)n[nH]c21` [Compound 3, (E)-isopropyl 6-(3-fluoro-4-(2-morpholinoethoxy)benzoyl)-4,4-dimethyl-3-(trifluoromethyl)-1,4,5,6-tetrahydropyrazolo[3,4-d]azepine-8-carboxylate] was run?
**A.** < 0.5 µM

**Q.** With `CC(C)NC(=O)C1=CN(C(=O)c2ccc(F)c(F)c2)CC(C)(C)c2c(C(F)(F)F)n[nH]c21` [Compound 1, (E)-6-(3,4-difluorobenzoyl)-N-isopropyl-4,4-dimethyl-3-(trifluoromethyl)-1,4,5,6-tetrahydropyrazolo[3,4-d]azepine-8-carboxamide] as the compound, how does the EC50 read?
**A.** < 0.5 µM
